Converted amounts (≈) assume the structure as drawn. The source made the active and inactive calls. The rule behind the calls is not given here.
Columns and labels:
Cytochrome P450 2D6 = Cytochrome P450 2D6 (Homo sapiens, UniProt P10635); assay: Inhibition of CYP2D6 (unknown origin); assay type: ADME
[1] = Kinetic solubility in PBS at pH 7.4; assay type: physicochemical; conditions: read-out: Kinetic_solubility
[2] = Microsomal stability in mouse liver microsomes assessed as intrinsic clearance; assay type: ADME, Microsome; conditions: read-out: CLH
Cytochrome P450 2C19 = Cytochrome P450 2C19 (Homo sapiens, UniProt P33261); assay: Inhibition of CYP2C19 (unknown origin); assay type: ADME
Cytochrome P450 3A4 = Cytochrome P450 3A4 (Homo sapiens, UniProt P08684); assay: Inhibition of CYP3A4 (unknown origin); assay type: ADME
Hepatitis B virus [3] = assay: Antiviral activity against HBV infected in NOD.CB17-Prkdcscid/J mouse assessed as log10 reduction in viral DNA at 10 mg/kg, po administered twice daily for 7 days by qPCR analysis; assay type: functional; conditions: time 7 day
Cytochrome P450 1A2 = molecular target: T1, Cytochrome P450 1A2 (Homo sapiens, UniProt P05177); assay: Inhibition of CYP1A2 (unknown origin); assay type: ADME
T1 sequence (P05177 whole entry): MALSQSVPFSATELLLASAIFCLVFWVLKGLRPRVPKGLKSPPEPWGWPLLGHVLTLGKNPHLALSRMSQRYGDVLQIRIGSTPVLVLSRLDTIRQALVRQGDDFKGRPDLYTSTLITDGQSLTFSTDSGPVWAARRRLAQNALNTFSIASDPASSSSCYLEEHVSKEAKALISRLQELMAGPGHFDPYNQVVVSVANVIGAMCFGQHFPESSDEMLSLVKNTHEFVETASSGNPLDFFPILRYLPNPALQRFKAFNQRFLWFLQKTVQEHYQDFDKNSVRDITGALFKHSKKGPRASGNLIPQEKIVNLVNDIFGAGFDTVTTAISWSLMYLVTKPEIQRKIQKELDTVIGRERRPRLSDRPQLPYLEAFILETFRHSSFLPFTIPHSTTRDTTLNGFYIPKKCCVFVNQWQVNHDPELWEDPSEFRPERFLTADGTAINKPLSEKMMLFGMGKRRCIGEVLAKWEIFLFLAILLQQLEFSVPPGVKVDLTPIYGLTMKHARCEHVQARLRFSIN

[4] = Half-life in CD-1 mouse at 10 mg/kg, po; assay type: ADME, organism-based; conditions: in vivo
Cytochrome P450 2C9 = Cytochrome P450 2C9 (Homo sapiens, UniProt P11712); assay: Inhibition of CYP2C9 (unknown origin); assay type: ADME
[5] = Cytotoxicity against human HepDE19 cells by CellTiter-Glo analysis; assay type: toxicity, cell-based
Hepatitis B virus [6] = assay: Antiviral activity against HBV infected in po dosed NOD.CB17-Prkdcscid/J mouse assessed as reduction in viral DNA administered once daily or twice daily for 7 days by qPCR analysis; assay type: functional, organism-based; conditions: dose 3-30 mg/kg, time 7.0 day
[7] = Oral bioavailability in CD-1 mouse at 10 mg/kg; assay type: ADME, organism-based; conditions: in vivo
[8] = AUC (0 to infinity) in CD-1 mouse at 10 mg/kg, po; assay type: ADME, organism-based; conditions: in vivo
[9] = Half-life in CD-1 mouse at 2 mg/kg, iv; assay type: ADME, organism-based; conditions: in vivo
Cytochrome P450 2B6 = molecular target: T2, Cytochrome P450 2B6 (Homo sapiens, UniProt P20813); assay: Inhibition of CYP2B6 (unknown origin); assay type: ADME
T2 sequence (P20813 whole entry): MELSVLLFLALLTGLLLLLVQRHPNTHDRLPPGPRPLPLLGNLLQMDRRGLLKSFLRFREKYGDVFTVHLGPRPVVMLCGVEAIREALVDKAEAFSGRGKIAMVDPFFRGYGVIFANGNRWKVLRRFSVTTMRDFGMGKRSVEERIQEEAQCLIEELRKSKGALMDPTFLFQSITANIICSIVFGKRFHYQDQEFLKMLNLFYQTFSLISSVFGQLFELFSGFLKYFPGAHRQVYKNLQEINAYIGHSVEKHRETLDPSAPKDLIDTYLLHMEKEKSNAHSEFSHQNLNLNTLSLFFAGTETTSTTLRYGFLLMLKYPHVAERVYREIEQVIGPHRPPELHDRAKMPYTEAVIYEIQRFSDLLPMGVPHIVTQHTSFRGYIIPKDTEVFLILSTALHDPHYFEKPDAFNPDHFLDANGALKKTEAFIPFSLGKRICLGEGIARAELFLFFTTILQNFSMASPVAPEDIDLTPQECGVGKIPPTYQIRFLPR

[10] = AUC (0 to infinity) in CD-1 mouse at 2 mg/kg, iv; assay type: ADME, organism-based; conditions: in vivo
Hepatitis B virus [11] = assay: Antiviral activity against HBV infected in NOD.CB17-Prkdcscid/J mouse assessed as log10 reduction in viral DNA at 30 mg/kg, po administered once daily for 7 days by qPCR analysis; assay type: functional; conditions: time 7 day
Hepatitis B virus [12] = assay: Antiviral activity against HBV infected in HepDE19 cells; assay type: functional, organism-based
[13] = Microsomal stability in human liver microsomes assessed as intrinsic clearance; assay type: ADME, Microsome; conditions: read-out: CLH
Hepatitis B virus [14] = assay: Antiviral activity against HBV infected in NOD.CB17-Prkdcscid/J mouse assessed as log10 reduction in viral DNA at 30 mg/kg, po administered twice daily for 7 days by qPCR analysis; assay type: functional; conditions: time 7 day
[15] = AUC (0 to infinity) in rat at 10 mg/kg, po; assay type: ADME, organism-based; conditions: in vivo
[16] = Drug concentration in rat liver at 10 mg/kg, po measured after 24 hrs; assay type: ADME, organism-based; conditions: read-out: Ct
Hepatitis B virus [17] = assay: Antiviral activity against HBV infected in HepDE19 cells assessed as effect on pgRNA core protein at 1 uM; assay type: functional, organism-based
Hepatitis B virus [18] = assay: Antiviral activity against HBV infected in NOD.CB17-Prkdcscid/J mouse assessed as log10 reduction in viral DNA at 10 mg/kg, po administered once daily for 7 days by qPCR analysis; assay type: functional; conditions: time 7 day
Hepatitis B virus [19] = assay: Antiviral activity against HBV infected in HepDE19 cells assessed as effect on capsid particle formation at 1 uM; assay type: functional, organism-based
[20] = Clearance in CD-1 mouse at 2 mg/kg, iv; assay type: ADME, organism-based; conditions: in vivo
[21] = Drug concentration in CD-1 mouse liver assessed as fold increase in EC90 concentration required for antiviral activity against HBV infected in HepDE19 cells at 10 mg/kg, po measured after 24 hrs; assay type: ADME, organism-based; conditions: in vivo
[22] = Microsomal stability in rat liver microsomes assessed as intrinsic clearance; assay type: ADME, Microsome; conditions: read-out: CLH
[23] = Clearance in rat at 2 mg/kg, iv; assay type: ADME, organism-based; conditions: in vivo
[24] = Microsomal stability in monkey liver microsomes assessed as intrinsic clearance; assay type: ADME, Macaca mulatta, Microsome; conditions: rhesus monkey, read-out: CLH
[25] = Half-life in monkey at 10 mg/kg, po; assay type: ADME, organism-based, Macaca mulatta; conditions: rhesus monkey, in vivo
[26] = Half-life in rat at 10 mg/kg, po; assay type: ADME, organism-based; conditions: in vivo
Hepatitis B virus [27] = assay: Antiviral activity against HBV infected in HepG2-hNTCP-C4 cells assessed as inhibition of HBsAg formation preincubated with compound followed by viral infection; assay type: functional, organism-based
[28] = AUC (0 to infinity) in monkey at 10 mg/kg, po; assay type: ADME, organism-based, Macaca mulatta; conditions: rhesus monkey, in vivo
Hepatitis B virus [29] = assay: Antiviral activity against HBV infected in NOD.CB17-Prkdcscid/J mouse assessed as log10 reduction in viral DNA at 3 mg/kg, po administered once daily for 7 days by qPCR analysis; assay type: functional; conditions: time 7 day
[30] = Drug concentration in rat liver assessed as fold increase in EC90 concentration required for antiviral activity against HBV infected in HepDE19 cells at 10 mg/kg, po measured after 24 hrs; assay type: ADME, organism-based; conditions: in vivo
Hepatitis B virus [31] = assay: Antiviral activity against HBV infected in HepG2-hNTCP-C4 cells assessed as inhibition of cccDNA formation preincubated with virus followed by compound addition; assay type: functional, organism-based
[32] = Drug concentration in CD-1 mouse liver at 10 mg/kg, po measured after 24 hrs; assay type: ADME, organism-based; conditions: read-out: Ct
[33] = Clearance in monkey at 2 mg/kg, iv; assay type: ADME, organism-based, Macaca mulatta; conditions: rhesus monkey, in vivo
Hepatitis B virus [34] = assay: Antiviral activity against HBV infected in HepG2-hNTCP-C4 cells assessed as inhibition of HBsAg formation preincubated with virus followed by compound addition; assay type: functional, organism-based
Hepatitis B virus [35] = assay: Antiviral activity against HBV infected in HepG2-hNTCP-C4 cells assessed as inhibition of cccDNA formation preincubated with compound followed by viral infection; assay type: functional, organism-based

Cytochrome P450 3A4, sequence (P08684 whole entry): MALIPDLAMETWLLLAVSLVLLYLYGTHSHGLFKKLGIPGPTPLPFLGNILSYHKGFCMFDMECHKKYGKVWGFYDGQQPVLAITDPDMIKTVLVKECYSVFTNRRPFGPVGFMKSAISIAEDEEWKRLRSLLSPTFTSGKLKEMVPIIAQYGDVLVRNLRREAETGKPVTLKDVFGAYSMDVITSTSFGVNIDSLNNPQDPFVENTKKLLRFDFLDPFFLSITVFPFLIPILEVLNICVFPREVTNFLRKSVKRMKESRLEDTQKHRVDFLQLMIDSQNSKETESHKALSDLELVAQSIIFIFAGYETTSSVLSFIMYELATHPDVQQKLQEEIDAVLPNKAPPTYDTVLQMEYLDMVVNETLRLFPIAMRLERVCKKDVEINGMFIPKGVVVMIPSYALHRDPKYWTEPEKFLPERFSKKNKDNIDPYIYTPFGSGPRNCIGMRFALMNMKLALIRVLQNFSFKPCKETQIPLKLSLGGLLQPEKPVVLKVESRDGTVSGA
Cytochrome P450 2D6, sequence (P10635 whole entry): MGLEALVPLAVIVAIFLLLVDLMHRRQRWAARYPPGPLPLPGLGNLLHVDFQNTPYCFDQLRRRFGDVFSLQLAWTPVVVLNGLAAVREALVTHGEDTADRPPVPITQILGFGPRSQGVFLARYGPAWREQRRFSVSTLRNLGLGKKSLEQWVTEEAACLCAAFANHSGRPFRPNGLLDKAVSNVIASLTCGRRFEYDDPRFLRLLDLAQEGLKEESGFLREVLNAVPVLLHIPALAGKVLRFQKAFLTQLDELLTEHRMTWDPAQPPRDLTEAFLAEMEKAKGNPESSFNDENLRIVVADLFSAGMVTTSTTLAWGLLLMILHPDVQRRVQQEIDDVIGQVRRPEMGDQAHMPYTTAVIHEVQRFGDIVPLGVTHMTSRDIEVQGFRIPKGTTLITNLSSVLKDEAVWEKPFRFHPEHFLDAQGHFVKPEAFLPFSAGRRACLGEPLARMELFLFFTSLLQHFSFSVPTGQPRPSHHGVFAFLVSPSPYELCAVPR
Cytochrome P450 2C9, sequence (P11712 whole entry): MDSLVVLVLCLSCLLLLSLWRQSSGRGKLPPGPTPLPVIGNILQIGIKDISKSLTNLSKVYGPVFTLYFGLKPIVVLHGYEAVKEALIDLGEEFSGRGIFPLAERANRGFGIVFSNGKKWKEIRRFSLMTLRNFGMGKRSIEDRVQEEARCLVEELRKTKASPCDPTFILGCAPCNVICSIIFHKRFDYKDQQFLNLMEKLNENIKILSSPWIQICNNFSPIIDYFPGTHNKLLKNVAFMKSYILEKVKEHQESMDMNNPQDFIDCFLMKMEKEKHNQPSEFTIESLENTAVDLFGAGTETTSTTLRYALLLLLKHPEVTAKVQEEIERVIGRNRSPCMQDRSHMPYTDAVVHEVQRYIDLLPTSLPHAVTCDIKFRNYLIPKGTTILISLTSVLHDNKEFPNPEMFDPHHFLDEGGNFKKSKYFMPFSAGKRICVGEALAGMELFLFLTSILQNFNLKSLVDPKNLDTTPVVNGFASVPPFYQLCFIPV
Cytochrome P450 2C19, sequence (P33261 whole entry): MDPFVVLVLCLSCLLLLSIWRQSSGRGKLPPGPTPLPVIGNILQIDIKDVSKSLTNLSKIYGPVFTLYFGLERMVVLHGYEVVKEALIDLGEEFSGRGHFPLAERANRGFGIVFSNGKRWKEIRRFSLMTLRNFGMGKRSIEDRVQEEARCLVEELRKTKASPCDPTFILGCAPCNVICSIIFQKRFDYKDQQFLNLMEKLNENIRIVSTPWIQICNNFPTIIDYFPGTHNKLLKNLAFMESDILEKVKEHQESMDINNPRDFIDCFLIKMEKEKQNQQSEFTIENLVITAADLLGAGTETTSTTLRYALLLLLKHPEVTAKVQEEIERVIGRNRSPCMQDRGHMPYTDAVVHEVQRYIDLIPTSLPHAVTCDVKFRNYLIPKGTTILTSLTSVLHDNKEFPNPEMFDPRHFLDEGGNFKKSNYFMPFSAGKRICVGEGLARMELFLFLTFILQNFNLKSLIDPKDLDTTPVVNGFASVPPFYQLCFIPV

## CC(c1c[nH]c(=O)c2ccccc12)N(C)C(=O)Nc1ccc(F)c(Cl)c1 (stereo not drawn)
Cytochrome P450 2D6
  IC50: > 20 µM
[1]
  solubility kinetic: 135 µM (≈ 50.5 µg/mL)
[2]
  microsomal CLint: 29 µL/min/mg
Cytochrome P450 2C19
  IC50: > 20 µM
Cytochrome P450 3A4
  IC50: > 20 µM
Hepatitis B virus [3]
  log(activity): 0.6
Cytochrome P450 1A2
  IC50: > 20 µM
[4]
  half-life: 2.2 h
Cytochrome P450 2C9
  IC50: > 20 µM
[5]
  CC50: > 25 µM
Hepatitis B virus [6]
  Activity: Dose-Dependent Effect
[7]
  bioavailability: 80%
[8]
  AUC(0-inf): 13800 ng·h/mL
[9]
  half-life: 2.4 h
Cytochrome P450 2B6
  IC50: > 20 µM
[10]
  AUC(0-inf): 3520 ng·h/mL
Hepatitis B virus [11]
  log(activity): 0.3
Hepatitis B virus [12]
  EC50: 0.045 µM
[13]
  microsomal CLint: 44 µL/min/mg
Hepatitis B virus [14]
  log(activity): 1.4

## C[C@H](c1c[nH]c(=O)c2cc(F)c(F)cc12)N(C)C(=O)Nc1ccc(F)c(C#N)c1
[15]
  AUC(0-inf): 5740 ng·h/mL
[1]
  solubility kinetic: 120 µM (≈ 48 µg/mL)
[16]
  concentration at 24 h: 334 ng/mL
[2]
  microsomal CLint: 10 µL/min/mg
Hepatitis B virus [17]
  Activity: inactive
Hepatitis B virus [18]
  log(activity): 2.5
[4]
  half-life: 3.1 h
Hepatitis B virus [19]
  Activity: inactive
[5]
  CC50: > 25 µM
[20]
  clearance: 13 mL/min/kg
[21]
  fold change (FC): 25
[22]
  microsomal CLint: 46 µL/min/mg
[23]
  clearance: 11 mL/min/kg
[24]
  microsomal CLint: 34 µL/min/mg
[25]
  half-life: 14 h
[26]
  half-life: 4.4 h
[8]
  AUC(0-inf): 13000 ng·h/mL
Hepatitis B virus [27]
  EC50: 0.197 µM
[28]
  AUC(0-inf): 9270 ng·h/mL
Hepatitis B virus [29]
  log(activity): 1.4
[30]
  fold change (FC): 20
Hepatitis B virus [31]
  Activity: inactive
Hepatitis B virus [12]
  EC50: 0.01 µM
[32]
  concentration at 24 h: 395 ng/mL
[13]
  microsomal CLint: 31 µL/min/mg
[33]
  clearance: 9 mL/min/kg
Hepatitis B virus [34]
  Activity: inactive
Hepatitis B virus [35]
  EC50: 0.175 µM
